# Measured values from PMC11650360 (Archiv Der Pharmazie, 2024).
# Columns and labels:
# [1] = molecular target: VchCAα (Vibrio cholerae, UniProt Q9KMP6); assay: stopped-flow CO2 hydrase assay; assay type: biochemical
# [2] = molecular target: VchCAβ (Vibrio cholerae, UniProt Q9KUD6); assay: biochemical
# VchCAβ, sequence (Q9KUD6 1-222): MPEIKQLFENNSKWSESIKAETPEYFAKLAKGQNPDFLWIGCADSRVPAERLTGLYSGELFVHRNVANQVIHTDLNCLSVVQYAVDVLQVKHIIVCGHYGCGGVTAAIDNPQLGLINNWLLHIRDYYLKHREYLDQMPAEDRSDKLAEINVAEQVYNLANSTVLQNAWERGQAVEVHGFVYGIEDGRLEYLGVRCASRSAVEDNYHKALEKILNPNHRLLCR
# VchCAα, sequence (Q9KMP6 21-239): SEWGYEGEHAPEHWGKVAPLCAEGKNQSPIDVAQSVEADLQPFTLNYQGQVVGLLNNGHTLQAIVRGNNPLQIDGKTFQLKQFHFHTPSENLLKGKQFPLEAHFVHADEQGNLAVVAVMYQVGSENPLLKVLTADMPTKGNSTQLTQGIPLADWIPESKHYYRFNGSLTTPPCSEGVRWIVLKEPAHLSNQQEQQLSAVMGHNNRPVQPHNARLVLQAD
smiles,measurement,setting,value
"COc1cccc(NC(=O)NCc2cn(CCCCS(N)(=O)=O)nn2)c1 [compound 22, 22]",Ki,[1],14 µM
same,Ki,[2],1.97 µM
"COc1cccc(NC(=O)NCc2cn(CCCS(N)(=O)=O)nn2)c1 [compound 9, 9]",Ki,[1],17.5 µM
same,Ki,[2],1.72 µM
"NS(=O)(=O)CCCCn1cc(CNC(=O)Nc2ccc(F)cc2)nn1 [compound 18, 18]",Ki,[1],16.9 µM
same,Ki,[2],3.41 µM
"COc1ccc(OCc2cn(CCCCS(N)(=O)=O)nn2)cc1 [compound 16, 16]",Ki,[1],28.7 µM
same,Ki,[2],6.13 µM
"Cc1ccc(NC(=O)NCc2cn(CCCS(N)(=O)=O)nn2)cc1 [compound 6, 6]",Ki,[2],0.82 µM
"NS(=O)(=O)CCCCn1cc(COc2ccccc2)nn1 [compound 14, 14]",Ki,[1],34.4 µM
same,Ki,[2],6.91 µM
"NS(=O)(=O)CCCn1cc(CNC(=O)Nc2ccc(C(F)(F)F)cc2)nn1 [compound 7, 7]",Ki,[1],11.2 µM
same,Ki,[2],0.67 µM
"Cc1ccc(NC(=O)NCc2cn(CCCCS(N)(=O)=O)nn2)cc1 [compound 19, 19]",Ki,[1],18.3 µM
same,Ki,[2],2.86 µM
"NS(=O)(=O)CCCCn1cc(CNC(=O)Nc2ccc(C(F)(F)F)cc2)nn1 [compound 20, 20]",Ki,[1],16.8 µM
same,Ki,[2],3 µM
"COc1ccc(OCc2cn(CCCS(N)(=O)=O)nn2)cc1 [compound 3, 3]",Ki,[1],16.5 µM
same,Ki,[2],2.96 µM
"NS(=O)(=O)CCCn1cc(COc2ccccc2)nn1 [compound 1, 1]",Ki,[1],29.1 µM
same,Ki,[2],4.16 µM
"NS(=O)(=O)CCCn1cc(CNC(=O)Nc2ccc(F)cc2)nn1 [compound 5, 5]",Ki,[1],13.4 µM
same,Ki,[2],0.93 µM
